Test results: ChEMBL document CHEMBL1201862, “PubChem BioAssay data set” (2004)
The source made the active and inactive calls.

Legend:
[1] = system: BJ; assay: BJ-TERT fibroblast viability loss – cell-based, RAS-independent, luminescence, dose response (AID 1933); assay type: functional; details: Homo sapiens
[2] = system: BJ; assay: cells; assay type: functional, cell-based; details: Homo sapiens
[3] = HPDE-C7 pancreatic duct cell viability loss – fluorescence, HTS (AID 430); assay type: functional, cell-based; details: Homo sapiens
[4] = viability loss of HPDE-C7K cells – cell-based, fluorescence, HTS, primary screen (AID 431); assay type: functional; details: Homo sapiens
[5] = system: BJ; assay: BJ-TERT-LT-ST fibroblast viability loss – cell-based, RAS-independent, luminescence, dose response (AID 1935); assay type: functional; details: Homo sapiens;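 further: BJ fibroblasts immortalized with TERT plus LT and ST oncogenes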
[6] = DRD fibroblast viability loss – cell-based, non-viral oncogenic, luminescence, dose response (AID 1934); assay type: functional; details: Homo sapiens
[7] = THP-1 cell cytotoxicity, dose response, cytotoxicity control for non-replicating M. tuberculosis project (AID 489025); assay type: functional
[8] = Vero E6 cell cytotoxicity, dose response, cytotoxicity control for non-replicating M. tuberculosis project, secondary assay (AID 492998); assay type: functional, VeroE6; details: Vero C1008
[9] = cells; assay type: functional
[10] = molecular target: Cytochrome P450 3A4 (Homo sapiens, UniProt P08684);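 further: CYP3A4 tested as one member of a cytochrome P450 panel screen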
[11] = HepG2 cell cytotoxicity, dose response, cytotoxicity control for non-replicating M. tuberculosis project (AID 489018); assay type: functional; details: Mycobacterium tuberculosis
[12] = molecular target: G-protein coupled receptor 55 (Homo sapiens, UniProt Q9Y2T6); assay: selective activators of receptor GPR55 – imaging, U2OS cells, beta-arrestin-GFP redistribution, primary screen (AID 1961); assay type: functional
[13] = system: HeLa; assay: ATP-based viability loss in HeLa cells – cell-based, CellTiter-Glo luminescence, cherry-pick samples, cytotoxicity control for MITF activator project, dose response (AID 540259); assay type: functional; details: Homo sapiens
[14] = molecular target: Induced myeloid leukemia cell differentiation protein Mcl-1 (Homo sapiens, UniProt Q07820); assay type: functional
[15] = luciferase reporter signal suppression in cells – H4 neuroglioma cells, luminescence, dose response (AID 1990); assay type: functional, cell-based
[16] = molecular target: Luciferin 4-monooxygenase (Photinus pyralis, UniProt P08659); assay: Counter Screen for Luciferase-based Assay Positives. [Related pubchem assays: 620, 618, 411 ]
[17] = Luminescence Cell-Based Dose Response HTS to Identify Inhibitors of 5'UTR Stem-Loop Driven Prion Protein mRNA Translation in H4 Neuroglioblastoma Cells. [Related pubchem assays: 1827 (Project Summary), 1813 (Primary HTS)]; assay type: functional
[18] = alpha-synuclein stem-loop luciferase translation blockers – H4 neuroglioma cells, luminescence, confirmation (AID 1988); assay type: functional, cell-based
[19] = system: HT-1080; assay: HT1080 cell viability loss – fluorescence readout (AID 620); assay type: functional, cell-based; details: Homo sapiens
[20] = molecular target: T1, Bcl-2-related protein A1 (Mus musculus, UniProt Q07440); assay type: functional;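 further: confirmatory dose–response counterscreen on Bfl-1, used to check hits from a UBC13 polyubiquitin inhibitor campaign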
T1 sequence (Q07440 whole entry): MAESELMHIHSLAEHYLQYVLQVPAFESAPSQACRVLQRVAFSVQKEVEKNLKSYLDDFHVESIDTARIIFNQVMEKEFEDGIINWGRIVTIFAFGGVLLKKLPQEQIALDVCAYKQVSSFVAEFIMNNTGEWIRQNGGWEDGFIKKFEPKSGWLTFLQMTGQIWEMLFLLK

[21] = molecular target: T2, Ubiquitin-conjugating enzyme E2 N (Homo sapiens, UniProt P61088); assay type: functional
T2 sequence (P61088 whole entry): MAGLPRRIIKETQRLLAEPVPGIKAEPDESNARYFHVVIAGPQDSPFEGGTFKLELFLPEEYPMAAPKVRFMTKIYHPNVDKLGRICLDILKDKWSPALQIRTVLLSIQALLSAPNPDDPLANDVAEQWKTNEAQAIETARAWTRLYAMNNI

[22] = molecular target: T2, Ubiquitin-conjugating enzyme E2 N; assay type: functional; remark: listed apart in the source
[23] = HEK-293T cell viability reduction – luminescence, B-cell screen hits, cytotoxicity control for BCR NF-kB inhibitor project, dose response (AID 489021); assay type: functional, cell-based;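 further: HEK-293T cells carrying an NF-kB luciferase reporter; cells exposed to compound for about 14 hours before viability readout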
[24] = molecular target: T3, Replicative DNA helicase DnaB (Mycobacterium tuberculosis, UniProt P9WMR3); assay: DnaB intein splicing inhibitors, dose response, biochemical, cell-free fluorescence (AID 449749); assay type: functional
T3 sequence (P9WMR3 whole entry): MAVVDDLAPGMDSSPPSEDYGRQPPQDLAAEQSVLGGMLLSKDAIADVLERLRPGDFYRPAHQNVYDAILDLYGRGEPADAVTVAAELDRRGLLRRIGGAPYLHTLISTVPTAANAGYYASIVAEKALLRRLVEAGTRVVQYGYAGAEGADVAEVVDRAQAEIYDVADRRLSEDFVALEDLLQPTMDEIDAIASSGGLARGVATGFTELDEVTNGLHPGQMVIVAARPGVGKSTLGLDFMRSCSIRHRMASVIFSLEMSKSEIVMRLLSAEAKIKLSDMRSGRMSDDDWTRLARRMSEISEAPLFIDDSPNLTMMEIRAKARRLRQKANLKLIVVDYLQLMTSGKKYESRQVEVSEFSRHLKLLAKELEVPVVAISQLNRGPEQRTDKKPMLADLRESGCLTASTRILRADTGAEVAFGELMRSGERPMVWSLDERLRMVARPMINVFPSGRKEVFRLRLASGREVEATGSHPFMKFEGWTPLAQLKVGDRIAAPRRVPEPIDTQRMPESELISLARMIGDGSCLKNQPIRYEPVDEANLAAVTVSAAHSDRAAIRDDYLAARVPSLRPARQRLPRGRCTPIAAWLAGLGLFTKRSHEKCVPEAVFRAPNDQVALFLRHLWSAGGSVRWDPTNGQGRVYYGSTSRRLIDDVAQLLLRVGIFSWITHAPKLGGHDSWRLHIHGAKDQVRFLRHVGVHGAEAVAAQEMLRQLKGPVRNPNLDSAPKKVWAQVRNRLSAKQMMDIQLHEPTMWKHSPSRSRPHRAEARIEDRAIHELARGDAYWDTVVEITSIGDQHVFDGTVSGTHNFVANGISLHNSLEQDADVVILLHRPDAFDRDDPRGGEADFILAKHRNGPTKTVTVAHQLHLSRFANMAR

[25] = molecular target: T4, Protein RecA (Mycobacterium tuberculosis, UniProt P9WHJ3); assay: Fluorescence Cell-Free Homogeneous Dose Retest to Identify Inhibitors of RecA-Intein Splicing Activity. [Related pubchem assays (depositor defined):AID2097, AID2223, AID489010, AID492950]; assay type: functional
T4 sequence (P9WHJ3 whole entry): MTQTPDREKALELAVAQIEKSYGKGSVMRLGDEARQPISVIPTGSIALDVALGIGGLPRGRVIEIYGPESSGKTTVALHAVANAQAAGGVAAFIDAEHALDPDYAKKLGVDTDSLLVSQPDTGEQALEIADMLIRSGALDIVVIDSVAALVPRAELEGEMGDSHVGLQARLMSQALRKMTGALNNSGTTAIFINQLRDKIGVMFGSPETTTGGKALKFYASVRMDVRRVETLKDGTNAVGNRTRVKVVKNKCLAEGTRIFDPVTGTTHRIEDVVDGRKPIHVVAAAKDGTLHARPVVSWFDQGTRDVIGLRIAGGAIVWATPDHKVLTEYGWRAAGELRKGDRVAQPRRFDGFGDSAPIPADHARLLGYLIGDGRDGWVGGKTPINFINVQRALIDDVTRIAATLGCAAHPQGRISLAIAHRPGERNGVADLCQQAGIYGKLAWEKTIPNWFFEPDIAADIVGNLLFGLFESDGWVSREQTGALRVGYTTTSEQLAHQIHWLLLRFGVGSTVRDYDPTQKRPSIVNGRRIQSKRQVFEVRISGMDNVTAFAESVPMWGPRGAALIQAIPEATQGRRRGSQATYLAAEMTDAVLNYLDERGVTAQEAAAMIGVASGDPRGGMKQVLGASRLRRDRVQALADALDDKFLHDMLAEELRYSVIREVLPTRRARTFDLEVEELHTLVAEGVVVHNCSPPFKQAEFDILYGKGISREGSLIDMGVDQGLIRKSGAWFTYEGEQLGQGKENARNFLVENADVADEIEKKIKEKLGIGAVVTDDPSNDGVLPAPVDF

Sequence of G-protein coupled receptor 55 (Q9Y2T6 whole entry): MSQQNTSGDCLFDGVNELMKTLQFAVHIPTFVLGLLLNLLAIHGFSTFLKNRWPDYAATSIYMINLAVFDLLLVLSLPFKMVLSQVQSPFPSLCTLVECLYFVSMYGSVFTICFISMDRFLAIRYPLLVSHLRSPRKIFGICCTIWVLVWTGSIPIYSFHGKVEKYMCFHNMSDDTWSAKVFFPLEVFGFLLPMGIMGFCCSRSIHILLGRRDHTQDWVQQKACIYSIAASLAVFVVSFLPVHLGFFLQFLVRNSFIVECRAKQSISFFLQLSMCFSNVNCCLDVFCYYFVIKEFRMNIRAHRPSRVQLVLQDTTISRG
Sequence of Luciferin 4-monooxygenase (P08659 whole entry): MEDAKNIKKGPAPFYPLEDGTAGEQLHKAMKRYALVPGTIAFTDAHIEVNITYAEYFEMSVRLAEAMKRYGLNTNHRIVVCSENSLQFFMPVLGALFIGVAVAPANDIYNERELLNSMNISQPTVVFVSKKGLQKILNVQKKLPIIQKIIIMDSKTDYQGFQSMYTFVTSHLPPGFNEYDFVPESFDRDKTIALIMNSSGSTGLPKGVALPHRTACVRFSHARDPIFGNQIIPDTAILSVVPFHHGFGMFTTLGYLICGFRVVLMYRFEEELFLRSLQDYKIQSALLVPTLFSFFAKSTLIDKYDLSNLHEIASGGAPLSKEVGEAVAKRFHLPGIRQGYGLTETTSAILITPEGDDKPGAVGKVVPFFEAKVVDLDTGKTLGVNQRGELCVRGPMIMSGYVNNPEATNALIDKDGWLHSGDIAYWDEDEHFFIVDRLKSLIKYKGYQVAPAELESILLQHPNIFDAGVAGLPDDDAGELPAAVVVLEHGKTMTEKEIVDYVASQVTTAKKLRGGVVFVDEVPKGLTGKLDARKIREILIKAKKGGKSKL
Sequence of Cytochrome P450 3A4 (P08684 whole entry): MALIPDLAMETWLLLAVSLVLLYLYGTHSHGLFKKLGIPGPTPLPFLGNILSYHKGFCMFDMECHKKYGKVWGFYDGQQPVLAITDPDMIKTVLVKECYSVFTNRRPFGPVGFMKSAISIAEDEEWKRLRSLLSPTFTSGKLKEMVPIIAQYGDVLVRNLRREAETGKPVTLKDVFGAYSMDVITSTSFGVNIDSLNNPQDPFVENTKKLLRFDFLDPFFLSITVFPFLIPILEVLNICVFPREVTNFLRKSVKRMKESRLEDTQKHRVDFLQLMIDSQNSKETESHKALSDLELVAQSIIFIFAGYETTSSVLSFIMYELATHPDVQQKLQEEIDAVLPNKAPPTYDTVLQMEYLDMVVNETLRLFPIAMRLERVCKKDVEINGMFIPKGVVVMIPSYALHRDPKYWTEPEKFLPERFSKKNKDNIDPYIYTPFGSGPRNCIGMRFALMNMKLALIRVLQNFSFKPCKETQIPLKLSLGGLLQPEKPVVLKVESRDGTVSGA
Sequence of Induced myeloid leukemia cell differentiation protein Mcl-1 (Q07820 whole entry): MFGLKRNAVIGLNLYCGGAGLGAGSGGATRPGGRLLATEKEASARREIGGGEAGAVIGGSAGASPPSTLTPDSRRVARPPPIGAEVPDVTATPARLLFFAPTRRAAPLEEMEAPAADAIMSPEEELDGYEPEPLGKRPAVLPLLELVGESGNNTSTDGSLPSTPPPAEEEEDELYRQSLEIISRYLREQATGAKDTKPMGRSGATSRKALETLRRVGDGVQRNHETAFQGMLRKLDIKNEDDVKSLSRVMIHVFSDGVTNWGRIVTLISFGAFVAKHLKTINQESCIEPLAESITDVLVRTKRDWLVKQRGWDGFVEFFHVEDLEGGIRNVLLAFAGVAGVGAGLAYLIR

## O=C1CSC(=S)N1Cc1cccnc1
[1]
  EC50: 5.09 µM (active)
[2]
  EC50: 21.1 µM (active)
[3]
  EC50: 5.21 µM (active)
[4]
  EC50: 3.72 µM (active)
[5]
  EC50: > 150 µM (inconclusive)
[6]
  EC50: 9.9 µM (active)
[7]
  CC50: 3.69 µM (active)
[8]
  CC50: 4.93 µM (active)
[9]
  IC50: 13.2 µM (active)

## Cc1s/c(=N\C(=O)c2ccco2)n(C)c1-c1ccccc1
[10]
  AC50: inconclusive

## CCCc1cc(NCCCn2ccnc2)n2nc(C)c(-c3ccccc3)c2n1
[7]
  CC50: 36.2 µM (active)
[11]
  CC50: > 20 µM (active)
[9]
  IC50: 29.1 µM (active)

## CCOC(=O)N1CCN(C(=O)c2ccc3c(c2)N(Cc2cc(C)ccc2C)C(=O)c2ccccc2[S+]3[O-])CC1 (configuration not stated)
[12]
  EC50: 4.83 µM (active)

## COC(=O)c1ccc(C(=O)NC2CC(C)(C)Cc3c2cnn3-c2ccc(F)cc2)nc1 (configuration not stated)
[7]
  CC50: 16.8 µM (active)
[11]
  CC50: > 20 µM (active)
[8]
  CC50: 12.2 µM (active)
[9]
  IC50: 6.8 µM (active)

## CCN(CC)S(=O)(=O)c1cccc(C(=O)N/N=C(\C)c2cccs2)c1
[13]
  AC50: 50.9 µM (active)

## CCN(CC)C(=O)CC(c1cc(OC)c(OC)c(OC)c1)c1c(OC)cc(OC)c2c(-c3ccccc3)cc(=O)oc12 (configuration not stated)
[14]
  IC50: 5.26 µM (active)
[12]
  EC50: 1.31 µM (active)

## COc1ccc(C(=O)Nn2c(SCC(=O)NCc3ccccc3)nc3ccccc3c2=O)cc1
[15]
  EC50: 9.49 µM (active)
[16]
  EC50: 2.51 µM (active)
[17]
  EC50: 9.71 µM (active)
[18]
  EC50: 0.403 µM (inconclusive)
[19]
  EC50: > 50 µM (not active)
[20]
  IC50: > 20 µM (inactive)
[21]
  IC50: 19.4 µM (active)
[22]
  IC50: > 20 µM (inactive)

## COc1ccc(/C=C2/SC(=S)N(CCCC(=O)Nc3cccc(O)c3)C2=O)cc1
[23]
  IC50: 55.8 µM (inactive)
[24]
  AC50: > 380 µM (inactive)
[25]
  EC50: > 380 µM (inactive)
